Measurements published in publication PMC9203742 (Nature Communications, 2022).
“And” between values parts separate entries of the source, which are not always exact repeats. Equal values may be shown once.

Columns and labels:
[1] = biological target: T1, mGlu1 K61H/N264H mutant (Rattus norvegicus, UniProt P23385, K61H/N264H); assay: Fura-2 Ca2+ imaging in HEK293 cells expressing mGlu1 K61H/N264H; type: cell-based; conditions: for Ca2+ response (delta ratio), K61H/N264H: Fig.1e; for Ca2+ response of individual cells (source data Suppl Fig1), K61H/N264H: single-cell values
T1 construct: expressed in transfected cells; host or cells: HEK293
T1 sequence (P23385 19-1199 K61H/N264H): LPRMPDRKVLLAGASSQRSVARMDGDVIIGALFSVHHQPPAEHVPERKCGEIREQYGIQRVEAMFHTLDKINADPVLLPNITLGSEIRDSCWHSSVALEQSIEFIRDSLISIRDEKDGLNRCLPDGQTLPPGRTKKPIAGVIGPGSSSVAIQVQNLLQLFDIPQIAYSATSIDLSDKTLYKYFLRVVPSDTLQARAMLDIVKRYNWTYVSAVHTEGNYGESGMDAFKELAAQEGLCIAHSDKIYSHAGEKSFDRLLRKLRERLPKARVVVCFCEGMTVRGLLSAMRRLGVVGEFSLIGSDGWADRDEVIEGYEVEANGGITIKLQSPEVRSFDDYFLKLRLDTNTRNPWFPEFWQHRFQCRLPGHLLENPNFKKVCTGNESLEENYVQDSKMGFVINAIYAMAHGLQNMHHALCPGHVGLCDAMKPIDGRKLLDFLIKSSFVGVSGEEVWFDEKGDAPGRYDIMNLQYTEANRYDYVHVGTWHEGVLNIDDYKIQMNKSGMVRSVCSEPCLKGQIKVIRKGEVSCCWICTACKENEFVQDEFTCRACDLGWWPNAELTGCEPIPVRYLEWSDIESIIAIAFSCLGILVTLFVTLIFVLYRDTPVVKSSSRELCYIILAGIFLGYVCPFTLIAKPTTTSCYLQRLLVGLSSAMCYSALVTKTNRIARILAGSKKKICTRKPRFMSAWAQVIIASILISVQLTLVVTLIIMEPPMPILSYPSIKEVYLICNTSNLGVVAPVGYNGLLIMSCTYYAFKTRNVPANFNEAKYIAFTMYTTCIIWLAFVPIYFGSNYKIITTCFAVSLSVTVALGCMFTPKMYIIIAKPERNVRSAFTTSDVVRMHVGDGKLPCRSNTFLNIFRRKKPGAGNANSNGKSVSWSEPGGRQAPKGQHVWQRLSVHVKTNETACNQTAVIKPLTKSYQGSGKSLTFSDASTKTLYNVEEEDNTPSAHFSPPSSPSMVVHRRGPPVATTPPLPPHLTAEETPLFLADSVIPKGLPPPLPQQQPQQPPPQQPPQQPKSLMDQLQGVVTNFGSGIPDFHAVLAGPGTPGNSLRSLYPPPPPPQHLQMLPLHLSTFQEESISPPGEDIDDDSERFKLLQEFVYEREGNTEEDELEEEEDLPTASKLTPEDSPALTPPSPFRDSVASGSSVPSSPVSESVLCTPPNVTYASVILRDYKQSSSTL

[2] = system: mGlu1 construct not given; assay: Fura-2 Ca2+ imaging in HEK293 cells, source data Suppl Fig1, left group (c0-c8); construct not given; type: cell-based, rat; conditions: single-cell values, cells #15-#20; left group of third block
Text: (§1) Supplement 41467_2022_30828_MOESM6_ESM.zip/Ojima et al_source data_Suppl Fig.xlsx, sheet "Suppl Fig1" | column: Glu; NiCl2; CuCl2; ZnCl2; CdCl2; Na2PdCl2; Pd(bpy)

[3] = system: mGlu1 construct not given; assay: Fura-2 Ca2+ imaging in HEK293 cells, source data Suppl Fig1, right group (c18-c26); construct not given; type: cell-based, rat; conditions: single-cell values, cells #15-#20; right group of third block
Text: as §1

[4] = biological target: T2, mGlu1 A59H/G266H mutant (Rattus norvegicus, UniProt P23385, A59H/G266H); assay: Fura-2 Ca2+ imaging in HEK293 cells expressing mGlu1 A59H/G266H; type: cell-based; conditions: single-cell values; for Ca2+ response (delta ratio), A59H/G266H: test concentration or dose not given here
T2 construct: expressed in transfected cells; host or cells: HEK293
T2 sequence (P23385 19-1199 A59H/G266H): as the sequence (P23385 19-1199 K61H/N264H) above, with A41H, H43K, H246N, G248H counted along it

[5] = biological target: T3, mGlu1 A59H/N264H mutant (Rattus norvegicus, UniProt P23385, A59H/N264H); assay: Fura-2 Ca2+ imaging in HEK293 cells expressing mGlu1 A59H/N264H; type: cell-based; conditions: for Ca2+ response (delta ratio), A59H/N264H: Fig.1e; for Ca2+ response of individual cells (source data Suppl Fig1), A59H/N264H: single-cell values #1-#20
T3 construct: expressed in transfected cells; host or cells: HEK293
T3 sequence (P23385 19-1199 A59H/N264H): as the sequence (P23385 19-1199 K61H/N264H) above, with A41H, H43K counted along it

[6] = biological target: T4, mGlu1 A59H/A265H mutant (Rattus norvegicus, UniProt P23385, A265H/A59H); assay: Fura-2 Ca2+ imaging in HEK293 cells expressing mGlu1 A59H/A265H; type: cell-based; conditions: Fig.1e
T4 construct: expressed in transfected cells; host or cells: HEK293
T4 sequence (P23385 19-1199 A59H/A265H): as the sequence (P23385 19-1199 K61H/N264H) above, with A41H, H43K, H246N, A247H counted along it

[7] = system: mGlu1 construct not given; assay: Fura-2 Ca2+ imaging in HEK293 cells, source data Suppl Fig1, middle group (c9-c17); construct not given; type: cell-based, rat; conditions: single-cell values, cells #15-#20; middle group of third block
Text: as §1

[8] = biological target: T4, mGlu1 A59H/A265H mutant; assay: Fura-2 Ca2+ imaging in HEK293 cells expressing mGlu1 A59H/A265H; type: cell-based; conditions: single-cell values
[9] = biological target: T5, mGlu1 E60H/N264H mutant (Rattus norvegicus, UniProt P23385, E60H/N264H); assay: Fura-2 Ca2+ imaging in HEK293 cells expressing mGlu1 E60H/N264H; type: cell-based; conditions: for Ca2+ response (delta ratio), E60H/N264H: Fig.1e; for Ca2+ response of individual cells (source data Suppl Fig1), E60H/N264H: single-cell values #1-#20
T5 construct: expressed in transfected cells; host or cells: HEK293
T5 sequence (P23385 19-1199 E60H/N264H): as the sequence (P23385 19-1199 K61H/N264H) above, with E42H, H43K counted along it

[10] = system: HEK293 cells, vector control; assay: Fura-2 Ca2+ imaging in HEK293 cells transfected with control vector (Vec); type: cell-based; conditions: single-cell values #1-#20; for Ca2+ response of individual cells (source data Suppl Fig1), Vec: test concentration or dose not given here
[11] = biological target: T6, mGlu1 P58H/N264H mutant (Rattus norvegicus, UniProt P23385, N264H/P58H); assay: Fura-2 Ca2+ imaging in HEK293 cells expressing mGlu1 P58H/N264H; type: cell-based; conditions: for Ca2+ response (delta ratio), P58H/N264H: Fig.1e; for Ca2+ response of individual cells (source data Suppl Fig1), P58H/N264H: single-cell values #1-#20
T6 construct: expressed in transfected cells; host or cells: HEK293
T6 sequence (P23385 19-1199 P58H/N264H): as the sequence (P23385 19-1199 K61H/N264H) above, with P40H, H43K counted along it

[12] = biological target: T7, mGlu1 P57H/N264H mutant (Rattus norvegicus, UniProt P23385, N264H/P57H); assay: Fura-2 Ca2+ imaging in HEK293 cells expressing mGlu1 P57H/N264H; type: cell-based; conditions: for Ca2+ response (delta ratio), P57H/N264H: Fig.1e; for Ca2+ response of individual cells (source data Suppl Fig1), P57H/N264H: single-cell values #1-#20
T7 construct: expressed in transfected cells; host or cells: HEK293
T7 sequence (P23385 19-1199 P57H/N264H): as the sequence (P23385 19-1199 K61H/N264H) above, with P39H, H43K counted along it

[13] = system: HEK293 cells, vector control; assay: Fura-2 Ca2+ imaging in HEK293 cells transfected with control vector (Vec); type: cell-based; conditions: Fig.1e; for Ca2+ response of individual cells (source data Suppl Fig1), Vec: test concentration or dose not given here
Text: Supplement 41467_2022_30828_MOESM6_ESM.zip/Ojima et al_source data_Main Figure.xlsx, sheet "Fig.1e" | column: Vec

[14] = biological target: T8, WT mGlu1 (Rattus norvegicus, UniProt P23385); type: cell-based; conditions: for Ca2+ response (delta ratio), WT: Fig.1e; for Ca2+ response of individual cells (source data Suppl Fig1), WT: single-cell values #1-#20; for all read-outs here: test concentration or dose not given here
T8 construct: expressed in transfected cells; host or cells: HEK293
T8 sequence (P23385 19-1199): as the sequence (P23385 19-1199 K61H/N264H) above, with H43K, H246N counted along it

[15] = biological target: T2, mGlu1 A59H/G266H mutant; assay: Fura-2 Ca2+ imaging in HEK293 cells expressing mGlu1 A59H/G266H; type: cell-based; conditions: Fig.1e

SMILES	Ca2+ response (delta ratio), K61H/N264H [1]	Ca2+ response of individual cells (source data Suppl Fig1), K61H/N264H [1]	Ca2+ response of individual cells (source data, sheet Suppl Fig1) [2]	Ca2+ response of individual cells (source data, sheet Suppl Fig1) [3]	Ca2+ response of individual cells (source data Suppl Fig1), A59H/G266H [4]	Ca2+ response (delta ratio), A59H/N264H [5]	Ca2+ response of individual cells (source data Suppl Fig1), A59H/N264H [5]	Ca2+ response (delta ratio), A59H/A265H [6]	Ca2+ response of individual cells (source data, sheet Suppl Fig1) [7]	Ca2+ response of individual cells (source data Suppl Fig1), A59H/A265H [8]	Ca2+ response (delta ratio), E60H/N264H [9]	Ca2+ response of individual cells (source data Suppl Fig1), E60H/N264H [9]	Ca2+ response of individual cells (source data Suppl Fig1), Vec [10]	Ca2+ response (delta ratio), P58H/N264H [11]	Ca2+ response of individual cells (source data Suppl Fig1), P58H/N264H [11]	Ca2+ response (delta ratio), P57H/N264H [12]	Ca2+ response of individual cells (source data Suppl Fig1), P57H/N264H [12]	Ca2+ response (delta ratio), Vec [13]	Ca2+ response (delta ratio), WT [14]	Ca2+ response of individual cells (source data Suppl Fig1), WT [14]	further results
[Cl][Cu][Cl] [CuCl2]	-0.008802	-0.02337 and 0.01083 and -0.01322 and 0.006669 and -0.02188 and -0.01248 and -0.01492 and -0.01697 and -0.01238 and 0.05283 and -0.01893 and -0.01583 and -0.01651 and -0.01879	0.006485 and -0.01132 and -0.01643 and -0.02029 and -0.01602 and -0.0035	-0.007831 and 0.008223 and -0.0022 and 0.006269 and -0.002515 and 0.01038	-0.005931 and -0.06262 and 0.006338 and -0.05078 and -0.003546 and -0.0521 and 0.002277 and -0.02358 and 0.04298 and -0.0436 and -0.1049 and -0.001831 and 0.0158 and -0.01046	-0.008971	0.01442 and -0.1061 and -0.004715 and -0.004738 and -0.008577 and -0.007731 and 0.0007462 and -0.01637 and -0.006738 and -0.004831 and 0.04273 and 0.05223 and 0.05741 and -0.09539 and -0.006538 and 0.01191 and -0.02261 and -0.005077 and -0.03944 and -0.03002	-0.0005365	-0.002923 and 0.002562 and 0.004815 and -0.0036 and -0.004154 and 0.002577	-0.01552 and 0.009746 and -0.01265 and -0.0065 and 0.009708 and -0.002746 and 0.009762 and -0.01072 and 0.004462 and -0.01463 and 0.01478 and 0.0025 and 0.01092 and -0.009138	-0.0006131	0.001946 and 0.001985 and -0.004585 and 0.05012 and -0.01047 and -0.007438 and -0.008146 and -0.01882 and 0.02938 and -0.02675 and -0.0009231 and -0.009708 and 0.06405 and 0.006685 and -0.01392 and -0.007992 and -0.007615 and -0.01812 and -0.013 and -0.01895	0.02461 and -0.003092 and 0.01753 and 0.02088 and 0.01475 and -0.003385 and 0.07142 and 0.01504 and 0.02807 and 0.04525 and 0.001746 and 0.01458 and 0.01948 and -0.006131 and 0.04009 and 0.01931 and 0.02889 and 0.01229 and -0.005492 and -0.004385	-0.01421	-0.02928 and 0.02135 and -0.1614 and -0.04317 and -0.03766 and -0.009985 and 0.06338 and -0.01091 and -0.1246 and -0.02604 and 0.008315 and -0.1403 and -0.007362 and 0.04025 and -0.04095 and 0.177 and 0.01632 and 0.001515 and 0.03036 and -0.0111	0.007634	-0.009615 and 0.002477 and 0.01378 and 0.02434 and 0.0008462 and 0.008 and -0.0007 and 0.008062 and 0.01831 and -0.0008538 and 0.01338 and 0.01485 and 0.01 and 0.001692 and -0.005731 and 0.03126 and 0.0103 and 0.01328 and -0.004977 and 0.003977	0.01757	0.02902	0.02565 and 0.01115 and 0.003838 and 0.01123 and 0.01654 and 0.01648 and -0.004477 and -0.001046 and -0.0009077 and 0.04058 and 0.008923 and 0.1117 and -0.006138 and 0.001246 and 0.02892 and 0.05005 and 0.02387 and -0.0088 and -0.01073 and 0.2624	Ca2+ response (delta ratio), A59H/G266H [15]: -0.01398
[Cl-].[Cl-].[Zn+2] [ZnCl2]	0.01018	0.0106 and 0.02204 and -0.0158 and -0.01138 and -0.0001308 and -0.01253 and -0.01344 and 0.3114 and -0.05129 and -0.02739 and -0.01424 and -0.005346 and 0.09999 and -0.01502	-0.009 and -0.001631 and -0.01245 and -0.02388 and -0.01824 and -0.008531	-0.02524 and -0.001377 and -0.01992 and 0.004231 and -0.03185 and -0.008431	-0.005723 and -0.01571 and -0.007938 and -0.01115 and -0.002308 and 0.008723 and -0.07331 and -0.0327 and -0.004923 and 0.01074 and -0.0004923 and -0.02615 and -0.03942 and 0.04141	0.00725	-0.01136 and 0.3757 and -0.01768 and -0.004631 and 0.0006077 and -0.008377 and -0.02044 and 0.005169 and -0.005323 and -0.01275 and -0.1876 and -0.01388 and 0.06164 and -0.009792 and -0.01495 and -0.03905 and -8.46E-05 and 0.03053 and 0.01748 and -0.0002154	0.009782	-0.0199 and 0.02527 and 0.05882 and -0.05132 and 0.1351 and 0.01718	0.02775 and 0.01526 and -0.01 and -0.0009538 and -0.04594 and 0.01742 and 0.01817 and 0.02166 and -0.009515 and -0.04688 and 0.04091 and -0.03576 and 0.04018 and -0.001815	-0.009416	-0.005892 and -0.03255 and -0.003646 and -0.02008 and -0.003615 and 0.05645 and 0.08788 and -0.01442 and -0.01449 and -0.04369 and -0.008223 and -0.02082 and -0.01922 and -0.01408 and -0.01929 and -0.02112 and -0.02071 and -0.02984 and -0.03302 and -0.007923	-0.02208 and -0.02062 and -0.01588 and -0.01264 and 0.0006769 and -0.01746 and -1.54E-05 and -0.004454 and -0.02104 and -0.008908 and -0.02662 and 0.006915 and 0.02477 and 0.001469 and -0.01177 and -0.03347 and -0.02945 and -0.01742 and 0.01306 and -0.02001	-0.00161	-0.01858 and -0.04214 and -0.01035 and -0.0081 and -0.006638 and 0.08488 and -0.007315 and -0.007238 and -0.01048 and -0.008431 and -0.001785 and 0.004277 and -0.0127 and -0.01994 and 0.003692 and 0.002931 and 0.009408 and 0.02135 and 0.0149 and -0.01995	-0.002972	-0.0004538 and -0.005931 and -0.01735 and 0.02302 and 0.0025 and -0.02347 and -0.004954 and -0.01065 (2×) and 0.01802 and -0.01439 and 0.007646 and -0.01182 and 0.0001154 and -0.0004462 and -0.009846 and 0.01085 and 0.0122 and -0.009315 and -0.01449	-0.01075	0.00492	-0.0004923 and -0.006346 and -0.007608 and 0.01052 and -0.003585 and 0.007785 and 0.05315 and -0.005223 and -0.002885 and -0.002892 and -0.004792 and -0.003569 and 0.002877 and -0.04019 and -0.002708 and -0.06293 and -0.001754 and 0.176 and -0.006623 and -0.0003538	Ca2+ response (delta ratio), A59H/G266H [15]: -0.01208
